Data: patent US20220031596A1, “ANTI-AGING AGENT AND ANTI-AGING METHOD” (priority 2018, published 2022)

Tests used:
Type in all cases: in vivo, human
[1] = tested on: ghrelin concentration in the plasma; assay: Evaluation of ghrelin secretion promoting effect (plasma ghrelin, 24-week oral ingestion); details: for ghrelin concentration in the plasma, 0 weeks (before ingestion) / ghrelin concentration in the plasma, 24 weeks (after ingestion) / ghrelin concentration in the plasma, Change rate (24 weeks - 0 weeks): High Dose Group (200 mg/daily, oral), mean±SD; for ghrelin concentration in the plasma, 0 weeks (before ingestion): baseline
Protocol: In order to confirm a change in the ghrelin quantity before and after ingestion of the nicotinamide mononucleotide, a test was conducted on healthy males and females aged 50 to 70 years.
As a sample of Working Example 3, a capsule formulation containing the nicotinamide mononucleotide and starch (200 mg of the nicotinamide mononucleotide in 4 capsules) (manufactured by SHINKOWA PHARMACEUTICAL Co., Ltd.) was used.
(§1) Each group consisting of five healthy males and females aged 50 to 70 years in an unbiased age group ingested the above capsule formulation once a day by 4 capsules for 24 weeks (total 10 subjects, 200 mg/daily ingestion). In order to conduct appropriate evaluations, those who had been regularly using medical products for chronic diseases, those who had been consuming healthy foods that may affect clinical research, and those who were currently participating in other clinical researches or clinical trials or had participated in other clinical researches or clinical trials within the last three months were excluded from the subject for the evaluation. The capsule formulations were ingested at 10 am (between meals and fasting state) together with water or lukewarm water (oral administration).
Measurement of the ghrelin quantity in the plasma was conducted by requesting the measurement to an external public organization according to a usual method. FIGS. 6a to 6c indicate transitions of the ghrelin concentration (pg/ml) in the plasma for 24 weeks. FIG. 6a represents the transitions of the whole subjects; FIG. 6b represents the transitions of the male subjects; FIG. 6c represents the transitions of the female subjects. Further, FIGS. 7a to 7c indicate change rates (%) of the blood ghrelin concentration up to 24 weeks when the nicotinamide mononucleotide was orally administered to the subjects for 24 weeks. FIG. 7a represents the change rates of the whole subjects; FIG. 7b represents the change rates of the male subjects; FIG. 7c represents the change rates of the female subjects. Further, Table 3 indicates the numerical values of the ghrelin concentration (pg/ml) in the plasma before the ingestion of the nicotinamide mononucleotide (0 weeks) and after the ingestion of the nicotinamide mononucleotide (24 weeks). Note that the numerical values represent mean values±standard deviation.

[2] = tested on: estradiol concentration in the plasma; assay: Evaluation of estradiol secretion promoting effect (plasma estradiol, 24-week oral ingestion); details: for estradiol concentration in the plasma, 0 weeks (before ingestion) / estradiol concentration in the plasma, 24 weeks (after ingestion) / estradiol concentration in the plasma, Change rate (24 weeks - 0 weeks): Low Dose Group (100 mg/daily, oral), mean±SD; for estradiol concentration in the plasma, 0 weeks (before ingestion): baseline
Protocol: In order to confirm a change in the estradiol quantity before and after ingestion of the nicotinamide mononucleotide, a test was conducted on healthy males and females aged 50 to 70 years.
As a sample of Working Example 7, a capsule formulation containing the nicotinamide mononucleotide and starch (100 mg of the nicotinamide mononucleotide in 4 capsules) (manufactured by SHINKOWA PHARMACEUTICAL Co., Ltd.) was used.
as §1, with “Each group consisting of five healthy males and females aged 50 to 70 years in an unbiased age group ingested the above capsule formulation once a day by 4 capsules for 24 weeks (total 10 subjects, 200 mg/daily ingestion).” left out
Measurement of the estradiol quantity in the plasma was conducted by requesting the measurement to an external public organization according to a usual method. FIGS. 14a to 14c indicate transitions of the estradiol concentration (pg/ml) in the plasma for 24 weeks. FIG. 14a represents the transitions of the whole subjects; FIG. 14b represents the transitions of the male subjects; FIG. 14c represents the transitions of the female subjects. Further, FIGS. 15a to 15c indicate change rates (%) of the blood estradiol concentration up to 24 weeks when the nicotinamide mononucleotide was orally administered to the subjects for 24 weeks. FIG. 15a represents the change rates of the whole subjects; FIG. 15b represents the change rates of the male subjects; FIG. 15c represents the change rates of the female subjects. Further, Table 7 indicates the numerical values of the estradiol concentration (pg/ml) in the plasma before the ingestion of the nicotinamide mononucleotide (0 weeks) and after the ingestion of the nicotinamide mononucleotide (24 weeks). Note that the numerical values represent mean values±standard deviation.

[3] = tested on: cortisol concentration in the plasma; assay: Evaluation of cortisol secretion promoting effect (plasma cortisol, 24-week oral ingestion); details: for cortisol concentration in the plasma, 0 weeks (before ingestion) / cortisol concentration in the plasma, 24 weeks (after ingestion) / cortisol concentration in the plasma, Change rate (24 weeks - 0 weeks): High Dose Group (200 mg/daily, oral), mean±SD; for cortisol concentration in the plasma, 0 weeks (before ingestion): baseline
Protocol: In order to confirm a change in the cortisol quantity before and after ingestion of the nicotinamide mononucleotide, a test was conducted on healthy males and females aged 50 to 70 years.
As a sample of Working Example 11, a capsule formulation containing the nicotinamide mononucleotide and starch (200 mg of the nicotinamide mononucleotide in 4 capsules) (manufactured by SHINKOWA PHARMACEUTICAL Co., Ltd.) was used.
as §1, with “above high dose” for “above”
Measurement of the cortisol quantity in the plasma was conducted by requesting the measurement to an external public organization according to a usual method. FIGS. 22a to 22c indicate transitions of the cortisol concentration […] in the plasma for 24 weeks. FIG. 22a represents the transitions of the whole subjects; FIG. 22b represents the transitions of the male subjects; FIG. 22c represents the transitions of the female subjects. Further, FIGS. 23a to 23c indicate change rates (%) of the blood cortisol concentration up to 24 weeks when the nicotinamide mononucleotide was orally administered to the subjects for 24 weeks. FIG. 23a represents the change rates of the whole subjects; FIG. 23b represents the change rates of the male subjects; FIG. 23c represents the change rates of the female subjects. Further, Table 10 indicates the numerical values of the cortisol concentration (μg/dl) in the plasma before the ingestion of the nicotinamide mononucleotide (0 weeks) and after the ingestion of the nicotinamide mononucleotide (24 weeks). Note that the numerical values represent mean values±standard deviation.

NC(=O)c1ccc[n+]([C@@H]2O[C@H](COP(=O)([O-])O)[C@@H](O)[C@H]2O)c1 [nicotinamide mononucleotide]
ghrelin concentration in the plasma, 0 weeks (before ingestion) ([1]; Female): 260 ± 111 pg/mL
ghrelin concentration in the plasma, 24 weeks (after ingestion) ([1]; Female): 990 ± 834 pg/mL
ghrelin concentration in the plasma, Change rate (24 weeks - 0 weeks) ([1]; Female): 730 ± 847 pg/mL
ghrelin concentration in the plasma, 0 weeks (before ingestion) ([1]; Male): 111 ± 91 pg/mL
ghrelin concentration in the plasma, 24 weeks (after ingestion) ([1]; Male): 152 ± 131 pg/mL
ghrelin concentration in the plasma, Change rate (24 weeks - 0 weeks) ([1]; Male): 40 ± 50 pg/mL
ghrelin concentration in the plasma, 0 weeks (before ingestion) ([1]; Whole Subjects): 186 ± 124 pg/mL
ghrelin concentration in the plasma, 24 weeks (after ingestion) ([1]; Whole Subjects): 571 ± 716 pg/mL
ghrelin concentration in the plasma, Change rate (24 weeks - 0 weeks) ([1]; Whole Subjects): 385 ± 672 pg/mL
ghrelin concentrations in the plasma, effect of ingestion (in words) ([1]; oral, 200 mg/daily, 24 weeks, FIGS. 6a-6c, 7a-7c): increased
estradiol concentration in the plasma, 0 weeks (before ingestion) ([2]; Female): 10.0 ± 0.0 pg/mL
estradiol concentration in the plasma, 24 weeks (after ingestion) ([2]; Female): 40.8 ± 70.6 pg/mL
estradiol concentration in the plasma, Change rate (24 weeks - 0 weeks) ([2]; Female): 30.8 ± 70.6 pg/mL
estradiol concentration in the plasma, 0 weeks (before ingestion) ([2]; Male): 24.0 ± 9.4 pg/mL
estradiol concentration in the plasma, 24 weeks (after ingestion) ([2]; Male): 24.9 ± 7.7 pg/mL
estradiol concentration in the plasma, Change rate (24 weeks - 0 weeks) ([2]; Male): 0.9 ± 5.6 pg/mL
estradiol concentration in the plasma, 0 weeks (before ingestion) ([2]; Whole Subjects): 17.0 ± 9.7 pg/mL
estradiol concentration in the plasma, 24 weeks (after ingestion) ([2]; Whole Subjects): 32.9 ± 48.1 pg/mL
estradiol concentration in the plasma, Change rate (24 weeks - 0 weeks) ([2]; Whole Subjects): 15.9 ± 49.8 pg/mL
estradiol concentrations in the plasma, effect of ingestion (in words) ([2]; oral, 100 mg/daily, 24 weeks, FIGS. 14a-14c, 15a-15c): increased
cortisol concentration in the plasma, 0 weeks (before ingestion) ([3]; Female): 6.82 ± 1.20 µg/dL
cortisol concentration in the plasma, 24 weeks (after ingestion) ([3]; Female): 10.56 ± 5.92 µg/dL
cortisol concentration in the plasma, Change rate (24 weeks - 0 weeks) ([3]; Female): 3.74 ± 6.16 µg/dL
cortisol concentration in the plasma, 0 weeks (before ingestion) ([3]; Male): 7.97 ± 2.50 µg/dL
cortisol concentration in the plasma, 24 weeks (after ingestion) ([3]; Male): 10.30 ± 4.47 µg/dL
cortisol concentration in the plasma, Change rate (24 weeks - 0 weeks) ([3]; Male): 2.33 ± 3.38 µg/dL
cortisol concentration in the plasma, 0 weeks (before ingestion) ([3]; Whole Subjects): 7.40 ± 1.94 µg/dL
cortisol concentration in the plasma, 24 weeks (after ingestion) ([3]; Whole Subjects): 10.43 ± 4.95 µg/dL
cortisol concentration in the plasma, Change rate (24 weeks - 0 weeks) ([3]; Whole Subjects): 3.04 ± 4.74 µg/dL
cortisol concentrations in the plasma, effect of ingestion (in words) ([3]; oral, 200 mg/daily, 24 weeks, FIGS. 22a-22c, 23a-23c): increased
